Assay results as given in patent US6001884A, “Calcium receptor-active molecules” (NPS Pharmaceuticals, Inc., priority 1995, dated 1999).
Structures can show the parent of a compound that is named as a salt. Where two headings read alike, the source gives them in different places.

Target: T1, calcium receptor (Homo sapiens, UniProt P41180)
T1 sequence (P41180 20-1078): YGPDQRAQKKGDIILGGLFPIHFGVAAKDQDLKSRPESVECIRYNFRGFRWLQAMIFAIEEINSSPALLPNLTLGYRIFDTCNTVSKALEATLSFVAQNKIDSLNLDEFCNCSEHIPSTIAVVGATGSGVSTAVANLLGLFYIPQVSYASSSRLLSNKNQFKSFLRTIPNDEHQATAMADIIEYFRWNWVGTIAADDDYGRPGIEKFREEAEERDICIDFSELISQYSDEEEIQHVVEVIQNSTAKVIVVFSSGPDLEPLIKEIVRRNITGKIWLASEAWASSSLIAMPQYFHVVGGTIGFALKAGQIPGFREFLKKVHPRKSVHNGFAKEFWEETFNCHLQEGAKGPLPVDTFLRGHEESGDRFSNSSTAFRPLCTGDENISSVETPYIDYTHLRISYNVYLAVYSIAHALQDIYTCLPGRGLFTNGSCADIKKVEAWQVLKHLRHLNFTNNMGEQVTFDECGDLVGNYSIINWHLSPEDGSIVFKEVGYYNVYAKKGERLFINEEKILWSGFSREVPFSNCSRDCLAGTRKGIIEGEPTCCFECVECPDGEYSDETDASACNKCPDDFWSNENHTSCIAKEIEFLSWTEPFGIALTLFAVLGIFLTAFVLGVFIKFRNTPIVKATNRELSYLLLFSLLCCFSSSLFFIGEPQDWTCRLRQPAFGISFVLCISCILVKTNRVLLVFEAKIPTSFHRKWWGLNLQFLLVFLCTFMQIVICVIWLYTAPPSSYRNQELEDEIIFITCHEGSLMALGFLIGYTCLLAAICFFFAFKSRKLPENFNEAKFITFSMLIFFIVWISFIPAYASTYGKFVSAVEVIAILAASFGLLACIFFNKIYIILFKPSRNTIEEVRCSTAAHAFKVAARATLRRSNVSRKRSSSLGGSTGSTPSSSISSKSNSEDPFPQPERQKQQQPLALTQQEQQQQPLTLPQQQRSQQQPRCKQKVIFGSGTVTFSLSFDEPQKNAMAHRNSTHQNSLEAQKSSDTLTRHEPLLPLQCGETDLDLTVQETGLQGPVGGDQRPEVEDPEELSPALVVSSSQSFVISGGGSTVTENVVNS
Assay: EC50 (concentration evoking a half-maximal effect) at an inorganic ion receptor / calcium receptor
Format: cell-based
Text: The EC50 is the concentration of the molecule which evokes a half-maximal effect. The IC50 is the concentration of molecule which causes a half-maximal blocking effect. The EC50 or IC50 can be determined by assaying one or more of the activities of an inorganic ion at an inorganic ion receptor. Preferably, such assays are specific to a particular calcium receptor. For example, assays which measure hormones whose production or secretion is modulated by a particular inorganic ion receptor are preferred.
Nemeth et al., PCT/US93/01642, International Publication Number WO 94/18959. For example, poly(A)^+ mRNA can be obtained from cells expressing a calcium receptor, such as a parathyroid cell, bone osteoclast, juxtaglomerular kidney cell, proximal tubule kidney cell, distal tubule kidney cell, cell of the thick ascending limb of Henle's loop and/or collecting duct, keratinocyte in the epidermis, parafollicular cell in the thyroid (C-cell), intestinal cell, central nervous cell, peripheral nervous system cell, trophoblast in the placenta, platelet, vascular smooth muscle cell, cardiac atrial cell, gastrin-secreting cell, glucagon-secreting cell, kidney mesangial cell, mammary cell, beta cell, fat/adipose cell, immune cell, and GI tract cell. Preferably, the nucleic acid is from a parathyroid cell, C-cell, or osteoclast. More preferably, the nucleic acid encodes a calcium receptor and is present on a plasmid or vector.

[1] = concentration of the molecule which evokes a half-maximal effect, preferred agents, cell type and assay read-out not stated, read-out: EC50

C[C@@H](NCCCc1ccccc1Cl)c1cccc2ccccc12 [Compound 12Z, N-3-(2-chlorophenyl)-1-propyl-(R)-1-(1-naphthyl)ethylamine hydrochloride]
EC50: < 5 µM

COc1ccc(CN[C@H](C)c2cccc3ccccc23)cc1Cl [Compound 16M, N-(3-chloro-4-methoxybenzyl)-(R)-1-(1-naphthyl)ethylamine hydrochloride]
EC50 [1]: < 5 µM

COc1ccc([C@@H](C)N[C@H](C)c2cccc3ccccc23)cc1C [Compound 16P, (R)-N-(1-(4-Methoxy-3-methylphenyl)ethyl)-(R)-1-(1-naphthyl)ethylamine hydrochloride]
EC50 [1]: < 5 µM

COc1cccc([C@@H](C)NCCCc2cccc(C)c2)c1 [Compound 12V, N-3-(3-methylphenyl)-1-propyl-(R)-3-methoxy-α-methylbenzylamine hydrochloride]
EC50 [1]: < 5 µM

CC(C)c1ccc(CN[C@H](C)c2cccc3ccccc23)cc1 [Compound 11X, N-(4-Isopropylbenzyl)-(R)-1-(1-naphthyl)ethylamine hydrochloride]
EC50 [1]: < 5 µM

COc1cccc([C@@H](C)NCCCc2ccccc2C)c1 [Compound 12U, N-3-(2-methylphenyl)-1-propyl-(R)-3-methoxy-α-methylbenzylamine hydrochloride]
EC50 [1]: < 5 µM

CSc1cccc(C(C)NCCCc2ccccc2)c1 (racemic) [Compound 8J, N-(3-phenylpropyl)-1-(3-thiomethylphenyl)ethylamine hydrochloride]
EC50 [1]: < 5 µM

COc1ccc([C@@H](C)N[C@H](C)c2cccc3ccccc23)cc1 [Compound 14U, (R)-N-(1-(4-methoxyphenyl)ethyl)-(R)-1-(1-naphthyl)ethylamine hydrochloride]
EC50 [1]: < 5 µM

C[C@@H](N[C@H](C)c1cccc2ccccc12)c1ccc2ccccc2c1 [Compound 9R, (R)-N-(1-(2-naphthyl)ethyl)-(R)-1-(1-naphthyl)ethylamine hydrochloride]
EC50 [1]: < 5 µM

COc1cccc([C@@H](C)NCCCc2ccccc2OC)c1 [Compound 8U, N-3-(2-methoxyphenyl)-1-propyl-(R)-3-methoxy-α-methylbenzylamine hydrochloride]
EC50 [1]: < 5 µM
